In patent publication EP4796171A2 (Zealand Pharma A/S, priority 2017, dated 2018):

Biological target: T1, human GLP-2 receptors (Homo sapiens, UniProt O95838, D470N)
T1 sequence (O95838 1-553 D470N): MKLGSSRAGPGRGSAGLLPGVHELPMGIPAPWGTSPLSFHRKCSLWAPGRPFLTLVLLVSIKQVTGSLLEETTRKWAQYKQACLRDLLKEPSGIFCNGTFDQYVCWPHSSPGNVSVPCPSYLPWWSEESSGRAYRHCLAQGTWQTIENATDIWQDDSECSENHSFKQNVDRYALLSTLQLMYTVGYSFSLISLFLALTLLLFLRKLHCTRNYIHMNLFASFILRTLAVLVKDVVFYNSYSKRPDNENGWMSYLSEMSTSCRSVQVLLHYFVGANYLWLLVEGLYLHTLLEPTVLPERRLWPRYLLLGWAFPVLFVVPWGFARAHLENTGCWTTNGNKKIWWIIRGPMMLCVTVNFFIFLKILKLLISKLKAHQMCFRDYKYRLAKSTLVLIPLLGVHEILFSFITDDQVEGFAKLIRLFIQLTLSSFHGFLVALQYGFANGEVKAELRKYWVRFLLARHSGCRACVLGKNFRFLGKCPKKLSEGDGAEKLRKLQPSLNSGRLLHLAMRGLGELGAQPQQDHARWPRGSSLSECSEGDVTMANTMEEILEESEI
Test: GLP-2 receptor efficacy assay (cAMP AlphaScreen)
Assay type: cell-based
Source text: The hGLP2-R was purchased from MRC-geneservice, Babraham, Cambridge as an Image clone: 5363415 (11924-117). For subcloning into a mammalian expression vector, primers for subcloning were obtained from DNA-Technology, Risskov, Denmark. The 5' and 3' primers used for the PCR reaction include terminal restriction sites for cloning and the context of the 5' primer is modified to a Kozak consensus without changing the sequence of the product encoded by the ORF. A standard PCR reaction was run using Image clone 5363415 (11924-117) as a template with the above mentioned primers and Polymerase Herculase II Fusion in a total vol. of 50µl. The generated PCR product was purified using GFX PCR and Gel band purification kit, digested with restriction enzymes and cloned into the mammalian expression vector using Rapid DNA Ligation Kit. Ligation reaction was transformed to XL10 Gold Ultracompetent cells and colonies were picked for DNA production using Endofree Plasmid maxi kit. Subsequent sequence analysis was conducted by MWG Eurofins, Germany.
HEK293 cells were transfected using the Lipofectamine PLUS transfection method. The day before transfection, HEK293 cells were seeded in two T75 flasks at a density of 2 x 10^6 cells / T75 flask in cell culturing medium without antibiotics. On the day of transfection, cells were washed with 1x DPBS and medium was replaced with Optimem to a volume of 5 mL / T75 flask before addition of Lipofectamine-plasmid complexes were added gently and drop wise to the cells in T75 flasks and replaced with growth medium after 3 hours and again to growth medium supplemented with 500µg/mL G418 after 24 hours. After 4 weeks in G418 selection, clones were picked and tested in a functional assay.
The cAMP AlphaScreen® assay from Perkin Elmer was used to quantitate the cAMP response to activation of the GLP2 receptor. […] Table 2: GLP-2R EC50 measurements

In the case of “H-HGEGTFSSELATILDALAARDFIAWLIATKITDK-OH [ZP2469]”, the EC50 is reported as 0.052 nM and the in vitro potency (in words, relative to ZP1848) is reported as “comparable to ZP1848”.
